According to publication PMC12598616, “Design and optimization of caspase-1-responsive fluorescent probes for pyroptosis imaging and anti-pyroptosis drug screening” (Chemical Science, 2025):

Tested on: Cas-1 in primary chondrocytes
Test: Intracellular imaging in primary chondrocytes
Type: cell-based
Details: H2O2 2 mM 30, 60, 90 min; FPy1 5 μM 1 h
Description: The decline in chondrocyte function plays a crucial role in the pathogenesis of OA. Inflammasome-mediated chondrocyte pyroptosis has been closely associated with matrix degradation and cartilage degeneration in OA.[38] To model OA in vitro, primary chondrocytes were stimulated with H2O2 (2 mM) for different durations, followed by staining with FPy1 (5 μM) and fluorescence imaging to monitor the progression of pyroptosis under oxidative stress. […] To better mimic the in vivo pathological features of OA, primary chondrocytes were also cultured as three-dimensional spheroids and stimulated with H2O2. […] Furthermore, we evaluated the capability of FPy1 to monitor pyroptosis progression at different stages of OA in a mouse model. […] The pathological manifestations in the corresponding tissues became more pronounced with longer modeling periods, consistent with the fluorescence imaging results obtained using FPy1. […]
Chondrocytes were isolated from articular cartilage and resuspended in 1mL DMEM/F12 medium containing 10 μM ITS-A. A total of […] were counted and transferred into centrifuge tubes. […]
The chondrocytes or 3D cell spheroids were seeded in dishes and cultured overnight. […] Fluorescence imaging was then performed with an excitation of 514 nm, and signals were […]

## –FLTDG– [FPy1, RhoB donor, hNR quencher]
  intracellular fluorescence intensity in primary chondrocytes: increased with prolonged H2O2 stimulation
